Experiment [1] concerns Enterococcus faecalis strain G. Briefly: Determination of the MIC, 24 hour turbidity assay (optical density at 650 nm). The class given is cell-based. The protocol: Materials and Methods. • A Versamax™ temperature-controlled spectrophotometeric plate reader was used to continuously monitor growth of bacteria. This device accepts standard microtiter plates and maintains a constant temperature as desired. It therefore serves both as an incubator and as a plate reader that quantitatively monitors bacterial growth by following the development of turbidity in the wells. The device is supported by software which allows generation of individual growth curves for each well. • Enterococcus faecalis strain G was used. This bacterium was selected to establish a baseline to which other bacteria may be compared in the future. It is a stable strain and is streptomycin-resistant, which allows the use of this antibiotic agent in the growth media to reduce the incidence of accidental contamination with other bacterial strains. • Growth medium and conditions. The tests were conducted using Brain-Heart Infusion broth (BHI) as growth medium. This medium contained 1 mg/100 ml glucose which is approximately equivalent to serum concentration of glucose. A temperature of 37 C was maintained throughout the test. • Antibacterial agents. […] The Triclosan was initially dissolved in […] at a concentration of 10 mg/ml. […] Two types of non-woven fabric were used. The material was cut to standard size of 6 mm2. […] The growth medium contained 1 mg/100 mL glucose, which is approximately equivalent to the concentration that may be present in human blood. […] Bacteria were added at 10^6 CFU/well and the turbidity in the well was continuously monitored for up to 24 h to monitor the growth of the bacteria. Each group consisted of 8 wells with respective concentrations. Wells containing bacteria with no antibacterial agent served as a positive control. […] Bacteria were added to the same wells at time 0 and then at 24 and 48 h. Bacterial growth was monitored for 24 h after each addition. • (c) Determination of the MIC of Triclosan: The antibacterial effect of Triclosan was tested in 24 hour assays in order to define its MIC. Each well contained 200 μL of sterile growth medium. A range of Triclosan concentrations was added to respective wells. Bacteria were added at 10^6 CFU/well, and the turbidity in the well was continuously monitored for 24 h to monitor bacterial growth. Each group consisted of 8 wells with respective concentrations. Wells containing bacteria with no antibacterial agent served as a positive control. […] Each sample was attached to a special insert that allowed the material to be inserted into the wells of a microtiter plate without interfering with turbidity measurements in that well.

The nature of experiment [2]: GOx activity assay (o-Dianisidine/peroxidase, optical density at 490 nm). The class given is biochemical. Particulars: 0.03 mg/ml GOx. The protocol:
An assay was set up that included: • 48 mM sodium acetate buffer, pH 5.1 • 0.16 mM o-Dianisidine • 1.61% (w/v) glucose • 2 units/ml peroxidase
The above components undergo the following reactions in combination with GOx:
β-D-glucose+O2+H2O→D-Gluconolactone+H2O2 Reaction 1
H2O2+o-Dianisidine(reduced)→o-Dianisidine(oxidized) Reaction 2
The optical density of the assay at 490 nm indicates the concentration of oxidized o-Dianisidine in the assay, oxidized o-Dianisidine being the final product of Reactions 1 and 2. […] The assay was set up in a 96-well plate, in accordance with enzyme-linked immunosorbent assay (ELISA) techniques, as are known in the art. An ELISA reader, as is known in the art, was used to determine the optical density of the assay.
An assay was set up, in accordance with the techniques described with reference to Experiment 1.
The above components, in combination with glucose, undergo Reactions 1 and 2 described with reference to Experiment 1 hereinabove.
Different concentrations of glucose were added to the assay, and the optical density of the assay after five minutes was measured with 490 nm light.
The above assay was set up with sodium acetate buffer of a pH that varied from 4 to 7.7.

The test system of experiment [3] is Enterococcus faecalis strain G. To be noted: GOx 6 μg/well (30 μg/mL) or higher, 72 hours, bacteria added at 0, 24 and 48 h. The protocol:
Materials and Methods. • A Versamax™ temperature-controlled spectrophotometeric plate reader was used to continuously monitor growth of bacteria. This device accepts standard microtiter plates and maintains a constant temperature as desired. It therefore serves both as an incubator and as a plate reader that quantitatively monitors bacterial growth by following the development of turbidity in the wells. The device is supported by software which allows generation of individual growth curves for each well. • Enterococcus faecalis strain G was used. This bacterium was selected to establish a baseline to which other bacteria may be compared in the future. It is a stable strain and is streptomycin-resistant, which allows the use of this antibiotic agent in the growth media to reduce the incidence of accidental contamination with other bacterial strains. • Growth medium and conditions. The tests were conducted using Brain-Heart Infusion broth (BHI) as growth medium. This medium contained 1 mg/100 ml glucose which is approximately equivalent to serum concentration of glucose. […] Bacteria were added at 10^6 CFU/well and the turbidity in the well was continuously monitored for up to 24 h to monitor the growth of the bacteria. […] Bacteria were added at 10^6 CFU/well, and the turbidity in the well was continuously monitored for 24 h to monitor bacterial growth. […]

In brackets after ≈: the same amount, converted by molar mass. Entries after “also recorded” stand apart in the source; their conditions may differ.

This is an account of results in patent US20100179646A1 (Rainbow Medical Ltd., priority 2009, published 2010).

For the compound `Oc1cc(Cl)ccc1Oc1ccc(Cl)cc1Cl` [Triclosan, reference compound], the “inhibition of bacterial growth” value in experiment [1] (4 μg/well (20 μg/mL), 24 h) is “failed to inhibit”; in experiment [1] (Triclosan 5 μg/well (25 μg/mL) and above, 24 h) it was “substantially inhibitory”. Moreover, the MIC in experiment [1] (Enterococcus faecalis, 24 h, read-out: minimal inhibitory concentration (MIC)) was 25 µg/mL (≈ 86.3 µM).

glucose oxidase [GOx]: the “influence of pH on GOx activity” value in experiment [2] (1.61% (w/v) glucose, sodium acetate buffer pH 4 to 7.7) is on record as “not substantially influenced”. In experiment [2] (pH 5.1, after five minutes, FIG. 6A), the “GOx activity at glucose levels of 80-120 mg/dL” value is given as “active; also recorded: approximately constant activity”. The “inhibition of bacterial growth” value in experiment [1] (4 μg/well (20 μg/mL), 24 h) is “failed to inhibit”; in experiment [1] (GOx 6 μg/well (30 μg/mL) or higher, 24 h) it was “substantially inhibitory; also recorded: zero bacterial growth”. Besides, in experiment [1] (24 hour assay, BHI broth with 1 mg/100 ml glucose, 37 C, 106 CFU/well), the “minimal inhibitory concentration (MIC)” value was determined as 30 µg/mL. Moreover, in experiment [3], the “inhibition of bacterial growth, sustained effect” value is reported as “substantially complete inhibition”.
